Test results published in patent US20140357713A1, “ANTIMICROBIAL COMPOUNDS AND METHODS OF USE” (NexMed Holdings, Inc., priority 2012, published 2014).
Counter-ions that a name gives are not always drawn. Like-named read-outs stand apart in the source and are kept apart here. One block for each molecule: values may come before it.

Assays:
[1] = test system: Staphulococcus aureus (ATCC 29213); test: Minimum inhibitory concentration (MIC) assay, Example 33; format: cell-based, Staphylococcus aureus; details: Staphylococcus aureus
Procedure, shortened: (§1)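 In CAMHB, 2-fold compound series meet bacteria from fresh isolated colonies, turbidity-adjusted to OD600 0.08-0.13 and diluted 1:100 (2× inoculum). Incubation: 35° C. Endpoint: MIC per CLSI.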

[2] = Solubility (Sol., Table 1); format: physicochemical
[3] = test system: Aspergillus niger (CMCC 98003); test: Minimum inhibitory concentration (MIC) assay, Example 33; format: cell-based; details: for MIC: Aspergillus niger
Procedure, shortened: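 Broth microdilution MIC per CLSI guidelines in RPMI 1640 with serial 2-fold compound dilutions. Spore suspension from sporulating colonies adjusted to OD530 0.09-0.13, diluted 1:50 as 2× inoculum and added 1:2 to drug wells; plates incubated at 35 °C and MIC read per CLSI.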

pH (Table 1) = format: physicochemical
[4] = test system: Escherichia coli (ATCC 25922); test: Time kill study, Example 33 (0 to 5 min); format: cell-based; details: 1×MIC
Procedure, shortened: (§2)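 Viable counts (Log10 CFU/mL) were recorded at each time point. Equal volumes of strain suspension and compound solution were combined following CLSI guidelines, then aliquots were diluted, plated on agar and incubated 24 to 48 hrs before colony counting.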

[5] = test system: Pseudomonas aeruginosa (ATCC 27853); test: Time kill study, Example 33 (0 to 5 min); format: cell-based; details: 1×MIC
Procedure, shortened: as §2

[6] = test system: Staphylococcus aureus (ATCC 29213); test: Time kill study, Example 33 (0 to 5 min); format: cell-based; details: 1×MIC
Procedure, shortened: as §2

[7] = test system: Candida albicans (ATCC 90029); test: Minimum inhibitory concentration (MIC) assay, Example 33; format: cell-based; details: Candida albicans
Procedure, shortened: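 Broth microdilution per CLSI guidelines in RPMI 1640; inoculum set to OD530 0.08–0.13, diluted 1:50 then 1:20 to 2× strength and mixed 1:2 with 2-fold serial compound dilutions. Incubated at 35° C; MIC read per CLSI.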

[8] = test system: Escherichia coli (ATCC 25922); test: as above; format: cell-based; details: Escherichia coli
Procedure, shortened: as §1

[9] = test system: Pseudomonas aeruginosa (ATCC 27853); test: as above; format: cell-based; details: Pseudomonas aeruginosa
Procedure, shortened: as §1

[10] = test system: Candida albicans (ATCC 90029); test: Time kill study, Example 33 (0 to 5 min); format: cell-based; details: 1×MIC
Procedure, shortened: as §2

[11] = test system: Aspergillus niger (CMCC 98003); test: Time kill study, Example 33 (0 to 5 min); format: cell-based; details: 1×MIC
Experimental: Thirty compounds were tested for antimicrobial activity using standard procedures and standard strains for both the minimum inhibitory concentration (MIC) assay and a time kill study. Both the MIC assay and the time kill study were performed according to Clinical and Laboratory Standards Institute (CLSI) guidelines. Three bacteria strains, Escherichia coli (ATCC 25922), Pseudomonas aeruginosa (ATCC 27853), Staphulococcus aureus (ATCC 29213), and two fungus strains, Candida albicans (ATCC 90029) and Aspergillus niger (CMCC 98003), were used in the experiments.
The viable counts in Log10 CFU/mL at each time point were recorded.
Time kill studies. Strain suspensions were prepared as described above for the MIC test, and strain suspensions and compound solutions were mixed in the same volume. Samples were removed at specified times including 0 min, 30 sec, 1 min and 5 mins, were diluted in the test medium and streaked on agar. Colonies were counted after 24 to 48 hrs of incubation.
The MIC values for thirty compounds against Escherichia coli, Pseudomonas aeruginosa, Staphulococcus aureus, Candida albicans, and Aspergillus niger were recorded and are presented in Table 3 and Table 4.

Structure (SMILES): CCCCCCCCCCCCOC(=O)C(C)N(C)C (stereo not shown) (as salt: salt) [Nex-30, Dodecyl 2-(dimethylamino)propanoate ethanesulfonate]
melting point: 45 to 50 °C

MIC ([1]; ATCC29213, Table 19 summary, read-out: MIC): 3130 µg/mL | MIC ([1]; ATCC29213, n = 1, read-out: MIC S. aureus): 3130 µg/mL | MIC ([1]; ATCC29213, n = 2, read-out: MIC S. aureus): 3130 µg/mL | Sol. [2]: 51% | MIC ([3]; CMCC98003, Table 19 summary, read-out: MIC): > 12500 µg/mL | MIC ([3]; CMCC98003, n = 1, read-out: MIC Aspergillus niger): > 12500 µg/mL | MIC ([3]; CMCC98003, n = 2, read-out: MIC Aspergillus niger): > 12500 µg/mL | pH (pH (Table 1)): 1.66 | MIC ([7]; ATCC90029, Table 19 summary, read-out: MIC): > 12500 µg/mL | MIC ([7]; ATCC90029, n = 1, read-out: MIC Candida albicans): > 12500 µg/mL | MIC ([7]; ATCC90029, n = 2, read-out: MIC Candida albicans): > 12500 µg/mL | MIC ([8]; ATCC25922, Table 19 summary of Example 33 and Example 35, read-out: MIC): 3130 µg/mL | MIC ([8]; ATCC25922, n = 1, read-out: MIC E. coli): 3130 µg/mL | MIC ([8]; ATCC25922, n = 2, read-out: MIC E. coli): 3130 µg/mL | MIC ([9]; ATCC27853, Table 19 summary, read-out: MIC): 6250 µg/mL | MIC ([9]; ATCC27853, n = 1, read-out: MIC P. aeruginosa): 6250 µg/mL | MIC ([9]; ATCC27853, n = 2, read-out: MIC P. aeruginosa): 6250 µg/mL | melting point: 100 to 106 °C
Structure (SMILES): CCCCCCCCCCCC(C)(C)OC(=O)C(C)N(C)C.Cl (stereo not shown) [Nex-65, 2-Methyltridecan-2-yl 2-(dimethylamino)propanoate hydrochloride]
Viable counts, Escherichia coli time kill study ([4]; 0.5 min): 5.72 Log10 CFU/mL | Viable counts, Escherichia coli time kill study ([4]; 1 min): 5.97 Log10 CFU/mL | Viable counts, Escherichia coli time kill study ([4]; 5 min): 4.22 Log10 CFU/mL | Viable counts, Escherichia coli time kill study ([4]; time 0): 5.68 Log10 CFU/mL | Viable counts, Pseudomonas aeruginosa time kill study ([5]; 0.5 min): 5.36 Log10 CFU/mL | Viable counts, Pseudomonas aeruginosa time kill study ([5]; 1 min): 5.52 Log10 CFU/mL | Viable counts, Pseudomonas aeruginosa time kill study ([5]; 5 min): <3.52 Log10 CFU/mL | Viable counts, Pseudomonas aeruginosa time kill study ([5]; time 0): 5.52 Log10 CFU/mL | Viable counts, Staphylococcus aureus time kill study ([6]; 0.5 min): 6.39 Log10 CFU/mL | Viable counts, Staphylococcus aureus time kill study ([6]; 1 min): 6.35 Log10 CFU/mL | Viable counts, Staphylococcus aureus time kill study ([6]; 5 min): 6.17 Log10 CFU/mL | Viable counts, Staphylococcus aureus time kill study ([6]; time 0): 6.34 Log10 CFU/mL

Structure (SMILES): CCCCCCCCCCCCOC(=O)C(C)N(C)C (stereo not shown) (as salt: maleate) [Nex-20, Dodecyl 2-(dimethylamino)propanoate maleate]
melting point: 65 to 70 °C

Structure (SMILES): CCCCCCCCCCCCOC(=O)C(C)N(C)C (stereo not shown) (as salt: methanesulfonate) [Nex-22, Dodecyl 2-(dimethylamino)propanoate methanesulfonate]
melting point: 66 to 72 °C

Structure (SMILES): CCCCCCCCCCCCOC(=O)C(C)(C)N(C)C (as salt: hydrochloride) [Nex-58, Dodecyl 2-(dimethylamino)-2-methylpropanoate hydrochloride]
melting point: 68 to 74 °C

Structure (SMILES): CCCCCCCCCCCCOC(=O)C(C)N(C)C (stereo not shown) (as salt: salt) [Nex-46, Dodecyl 2-(dimethylamino)propanoate 2-hydroxyethanesulfonate]
melting point: 58 to 63 °C

Structure (SMILES): CCCCCCCCCCCC(C)OC(=O)C(C)N(C)C (stereo not shown) (as salt: hydrochloride) [Nex-64, Tridecan-2-yl 2-(dimethylamino)propanoate hydrochloride]
melting point: 88 to 94 °C

Structure (SMILES): CCCCCCCCCCOC(=O)C(C)N(C)C (stereo not shown) [Nex-68, Decyl 2-(dimethylamino)propanoate hydrochloride]
MIC ([1]; ATCC29213, Table 19 summary): 3130 µg/mL | MIC ([1]; ATCC29213, read-out: MIC S. aureus, n = 1): 3130 µg/mL | MIC ([1]; ATCC29213, read-out: MIC S. aureus, n = 2): 3130 µg/mL | Sol. [2]: 97% | MIC ([3]; CMCC98003): 3130 µg/mL | MIC ([3]; CMCC98003, read-out: MIC Aspergillus niger): 3130 µg/mL | MIC Aspergillus niger ([3]; n = 2): 3.13 mg/mL | pH (pH (Table 1)): 0.87 | Viable counts, Escherichia coli time kill study ([4]; 0.5 min): 5.53 Log10 CFU/mL | Viable counts, Escherichia coli time kill study ([4]; 1 min): 4.3 Log10 CFU/mL | Viable counts, Escherichia coli time kill study ([4]; 5 min): <3.52 Log10 CFU/mL | Viable counts, Escherichia coli time kill study ([4]; time 0): 5.88 Log10 CFU/mL | Viable counts, Pseudomonas aeruginosa time kill study ([5]; 0.5 min): 5.18 Log10 CFU/mL | Viable counts, Pseudomonas aeruginosa time kill study ([5]; 1 min): 4.88 Log10 CFU/mL | Viable counts, Pseudomonas aeruginosa time kill study ([5]; 5 min): 4.87 Log10 CFU/mL | Viable counts, Pseudomonas aeruginosa time kill study ([5]; time 0): 5.78 Log10 CFU/mL | Viable counts, Staphylococcus aureus time kill study ([6]; 0.5 min): 5.82 Log10 CFU/mL | Viable counts, Staphylococcus aureus time kill study ([6]; 1 min): 5.88 Log10 CFU/mL | Viable counts, Staphylococcus aureus time kill study ([6]; 5 min): 5.57 Log10 CFU/mL | Viable counts, Staphylococcus aureus time kill study ([6]; time 0): 6.39 Log10 CFU/mL | Viable counts, Candida albicans time kill study ([10]; 0.5 min): 5.35 Log10 CFU/mL | Viable counts, Candida albicans time kill study ([10]; 1 min): 5.15 Log10 CFU/mL | Viable counts, Candida albicans time kill study ([10]; 5 min): 5.13 Log10 CFU/mL | Viable counts, Candida albicans time kill study ([10]; time 0): 5.47 Log10 CFU/mL | MIC ([7]; ATCC90029, Table 19 summary): 390 µg/mL | MIC ([7]; ATCC90029, read-out: MIC Candida albicans, n = 1): 390 µg/mL | MIC ([7]; ATCC90029, read-out: MIC Candida albicans, n = 2): 200 µg/mL | Viable counts, Aspergillus niger time kill study ([11]; 0.5 min): 5.25 Log10 CFU/mL | Viable counts, Aspergillus niger time kill study ([11]; 1 min): 5.25 Log10 CFU/mL | Viable counts, Aspergillus niger time kill study ([11]; 5 min): 5.25 Log10 CFU/mL | Viable counts, Aspergillus niger time kill study ([11]; time 0): 5.25 Log10 CFU/mL | MIC ([8]; ATCC25922, Table 19 summary of Example 33 and Example 35): 780 µg/mL | MIC ([8]; ATCC25922, read-out: MIC E. coli, n = 1): 780 µg/mL | MIC ([8]; ATCC25922, read-out: MIC E. coli, n = 2): 1560 µg/mL | MIC ([9]; ATCC27853, Table 19 summary): 3130 µg/mL | MIC ([9]; ATCC27853, read-out: MIC P. aeruginosa, n = 1): 3130 µg/mL | MIC ([9]; ATCC27853, read-out: MIC P. aeruginosa, n = 2): 3130 µg/mL
